Several values for one entry are separate records, joined by “and”; a condition that tells them apart may be missing. Identical values can stand only once. Inconclusive results and toxic doses are left out. How the source made its calls: active means survival T/C of 150% or more; inactive means T/C below 125% in these data.
Test system: CD2F1 mice, L1210 leukemia ip, survival T/C
Assay: NCI In Vivo Anticancer Drug Screen. Data for tumor model L1210 Leukemia (intraperitoneal) in CD2F1 (CDF1) mice
Details: higher = longer survival
Method in brief: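 Mice carrying a transplanted tumor received test compound or vehicle alone. The value is the measurement in the treated group divided by that in the vehicle-treated control group.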

[1] = endpoint: mean survival time, dose: 100.0 mg/kg/injection, schedule: Q01DX009 (ip), vehicle: saline with Tween-80
[2] = endpoint: mean survival time, dose: 100.0 mg/kg/injection, schedule: Q04DX003 (ip), vehicle: saline with Tween-80
[3] = endpoint: mean survival time, dose: 200.0 mg/kg/injection, schedule: Q01DX009 (ip), vehicle: saline with Tween-80
[4] = endpoint: mean survival time, dose: 200.0 mg/kg/injection, schedule: Q04DX003 (ip), vehicle: saline with Tween-80
[5] = endpoint: mean survival time, dose: 400.0 mg/kg/injection, schedule: Q01DX009 (ip), vehicle: saline with Tween-80
[6] = endpoint: mean survival time, dose: 400.0 mg/kg/injection, schedule: Q04DX003 (ip), vehicle: saline with Tween-80
[7] = endpoint: mean survival time, dose: 50.0 mg/kg/injection, schedule: Q01DX009 (ip), vehicle: saline with Tween-80

Measured: T/C

O.[Cl][Pt].[S-]CCN1CCCCC1
inactive: endpoint: mean survival time, dose: 12.5 mg/kg/injection, schedule: Q04DX003 (ip), vehicle: distilled water + Tween-80 96 % of control | endpoint: mean survival time, dose: 25.0 mg/kg/injection, schedule: Q04DX003 (ip), vehicle: distilled water + Tween-80 100 % of control | endpoint: mean survival time, dose: 50.0 mg/kg/injection, schedule: Q04DX003 (ip), vehicle: distilled water + Tween-80 98 % of control | endpoint: mean survival time, dose: 100.0 mg/kg/injection, schedule: Q04DX003 (ip), vehicle: distilled water + Tween-80 90 % of control | endpoint: mean survival time, dose: 200.0 mg/kg/injection, schedule: Q04DX003 (ip), vehicle: distilled water + Tween-80 93 % of control

NC1CCC(C(=O)O)CC1 (centres undefined)
inactive: endpoint: mean survival time, dose: 25.0 mg/kg/injection, schedule: Q01DX009 (ip), vehicle: saline 105 % of control | endpoint: mean survival time, dose: 50.0 mg/kg/injection, schedule: Q01DX009 (ip), vehicle: saline 97 % of control and 105 % of control | endpoint: mean survival time, dose: 100.0 mg/kg/injection, schedule: Q01DX009 (ip), vehicle: saline 94 % of control and 102 % of control | endpoint: mean survival time, dose: 200.0 mg/kg/injection, schedule: Q01DX009 (ip), vehicle: saline 102 % of control

N=Cc1c(O)n(-c2ccccc2)c(=O)[nH]c1=O
inactive: [1] 101 % of control | [2] 94 % of control | [3] 101 % of control | [4] 92 % of control | [5] 104 % of control | [6] 97 % of control

CCCCC(CC)COc1ccc(N=C(N)N=C(N)N)cc1 (centres undefined)
inactive: endpoint: mean survival time, dose: 25.0 mg/kg/injection, schedule: Q04DX002 (ip), vehicle: saline with Tween-80 98 % of control | endpoint: mean survival time, dose: 50.0 mg/kg/injection, schedule: Q04DX002 (ip), vehicle: saline with Tween-80 102 % of control

Clc1ccc(NC2=NCCO2)cc1
inactive: endpoint: mean survival time, dose: 100.0 mg/kg/injection, schedule: Q04DX003 (ip), vehicle: Klucel (hydroxypropylcellulose) (HPC) 94 % of control

O=C1c2cc([N+](=O)[O-])ccc2-c2cc(Br)ccc21
inactive: [2] 99 % of control | [4] 91 % of control

O=C1/C(=C/c2ccc(Cl)cc2Cl)CCC/C1=C\c1ccc(Cl)cc1Cl
inactive: [1] 87 % of control

CCCC(CCC)(C(N)=O)C(=O)O
inactive: endpoint: mean survival time, dose: 100.0 mg/kg/injection, schedule: Q01DX001 (ip), vehicle: saline 97 % of control | endpoint: mean survival time, dose: 200.0 mg/kg/injection, schedule: Q01DX001 (ip), vehicle: saline 97 % of control | endpoint: mean survival time, dose: 400.0 mg/kg/injection, schedule: Q01DX001 (ip), vehicle: saline 94 % of control

C1CCC2C[N-]CCC2C1.C1CCC2C[N-]CCC2C1.C1CCC2C[N-]CCC2C1.C1CCC2C[N-]CCC2C1.[I][Fe][I] (centres undefined)
inactive: [2] 108 % of control | [4] 106 % of control

COc1cc(Cl)ccc1NC(=O)OCCOc1cccc(C)c1
inactive: [7] 93 % of control | [1] 101 % of control | [3] 93 % of control

CCCCCCCCCCCCCCCCC(Br)C(=O)c1ccccc1 (centres undefined)
inactive: endpoint: mean survival time, dose: 100.0 mg/kg/injection, schedule: Q04DX002 (ip), vehicle: saline with Tween-80 102 % of control | endpoint: mean survival time, dose: 200.0 mg/kg/injection, schedule: Q04DX002 (ip), vehicle: saline with Tween-80 95 % of control | endpoint: mean survival time, dose: 400.0 mg/kg/injection, schedule: Q04DX002 (ip), vehicle: saline with Tween-80 111 % of control

C[N+](C)(C)C
inactive: endpoint: mean survival time, dose: 5.0 mg/kg/injection, schedule: Q01DX001 (ip), vehicle: saline 98 % of control | endpoint: mean survival time, dose: 5.0 mg/kg/injection, schedule: Q01DX009 (ip), vehicle: saline sonified 95 % of control | endpoint: mean survival time, dose: 5.0 mg/kg/injection, schedule: Q04DX003 (ip), vehicle: saline 100 % of control | endpoint: mean survival time, dose: 6.25 mg/kg/injection, schedule: Q01DX009 (ip), vehicle: saline with Tween-80 96 % of control | endpoint: mean survival time, dose: 10.0 mg/kg/injection, schedule: Q01DX009 (ip), vehicle: saline sonified 87 % of control | endpoint: mean survival time, dose: 20.0 mg/kg/injection, schedule: Q01DX001 (ip), vehicle: saline 98 % of control

CC(=O)OC1C(CNC(=O)Oc2ccccc2)OC(n2cnc3c(=O)[nH]c(N)nc32)C1OC(C)=O (centres undefined)
inactive: endpoint: mean survival time, dose: 100.0 mg/kg/injection, schedule: Q01DX001 (ip), vehicle: Klucel (hydroxypropylcellulose) (HPC) 88 % of control | endpoint: mean survival time, dose: 200.0 mg/kg/injection, schedule: Q01DX001 (ip), vehicle: Klucel (hydroxypropylcellulose) (HPC) 94 % of control | endpoint: mean survival time, dose: 400.0 mg/kg/injection, schedule: Q01DX001 (ip), vehicle: Klucel (hydroxypropylcellulose) (HPC) 91 % of control

O=Nc1sc2ccccc2c1O
inactive: [2] 104 % of control | [4] 96 % of control | [6] 96 % of control

Cc1cn(C(C=O)OC(C=O)CO)c(=O)[nH]c1=O (centres undefined)
inactive: endpoint: mean survival time, dose: 10.0 mg/kg/injection, schedule: Q01DX005 (ip), vehicle: water 107 % of control | endpoint: mean survival time, dose: 10.0 mg/kg/injection, schedule: Q01DX009 (ip), vehicle: water 104 % of control | endpoint: mean survival time, dose: 12.5 mg/kg/injection, schedule: Q01DX005 (ip), vehicle: water 104 % of control | endpoint: mean survival time, dose: 20.0 mg/kg/injection, schedule: Q01DX005 (ip), vehicle: water 102 % of control | endpoint: mean survival time, dose: 20.0 mg/kg/injection, schedule: Q01DX009 (ip), vehicle: water 107 % of control | endpoint: mean survival time, dose: 25.0 mg/kg/injection, schedule: Q01DX005 (ip), vehicle: water 98 % of control | endpoint: mean survival time, dose: 40.0 mg/kg/injection, schedule: Q01DX005 (ip), vehicle: water 112 % of control | endpoint: mean survival time, dose: 40.0 mg/kg/injection, schedule: Q01DX009 (ip), vehicle: water 124 % of control | endpoint: mean survival time, dose: 50.0 mg/kg/injection, schedule: Q01DX005 (ip), vehicle: water 104 % of control | endpoint: mean survival time, dose: 80.0 mg/kg/injection, schedule: Q01DX009 (ip), vehicle: water 120 % of control | endpoint: mean survival time, dose: 100.0 mg/kg/injection, schedule: Q01DX005 (ip), vehicle: water 104 % of control | endpoint: mean survival time, dose: 160.0 mg/kg/injection, schedule: Q01DX009 (ip), vehicle: water 102 % of control | endpoint: mean survival time, dose: 200.0 mg/kg/injection, schedule: Q01DX005 (ip), vehicle: water 109 % of control

CC1=C(CNc2ncnc3nc[nH]c23)CC=CC1
inactive: [1] 88 % of control | [2] 95 % of control | [3] 92 % of control | [5] 88 % of control | [6] 98 % of control

O=C(CNC(=O)Nc1cccc(C(F)(F)F)c1)N/N=C/c1cccs1
inactive: [7] 88 % of control | [1] 96 % of control | [3] 92 % of control

[N-]=[N+]=NC1CC(n2ccc(=O)[nH]c2=O)OC1COC(c1ccccc1)(c1ccccc1)c1ccccc1 (centres undefined)
inactive: endpoint: median survival time, dose: 12.5 mg/kg/injection, schedule: Q01DX005 (ip), vehicle: saline with Tween-80 96 % of control | endpoint: median survival time, dose: 25.0 mg/kg/injection, schedule: Q01DX005 (ip), vehicle: saline with Tween-80 101 % of control | endpoint: median survival time, dose: 50.0 mg/kg/injection, schedule: Q01DX005 (ip), vehicle: saline with Tween-80 94 % of control | endpoint: median survival time, dose: 100.0 mg/kg/injection, schedule: Q01DX005 (ip), vehicle: saline with Tween-80 95 % of control | endpoint: median survival time, dose: 200.0 mg/kg/injection, schedule: Q01DX005 (ip), vehicle: saline with Tween-80 91 % of control

O=C(O)c1cc(Cl)nc(Cl)c1
inactive: endpoint: mean survival time, dose: 100.0 mg/kg/injection, schedule: Q01DX001 (ip), vehicle: saline with Tween-80 94 % of control | endpoint: mean survival time, dose: 200.0 mg/kg/injection, schedule: Q01DX001 (ip), vehicle: saline with Tween-80 97 % of control | endpoint: mean survival time, dose: 400.0 mg/kg/injection, schedule: Q01DX001 (ip), vehicle: saline with Tween-80 92 % of control

Cc1ccc(NC(=O)C(Cl)(Cl)Cl)cc1[N+](=O)[O-]
inactive: [2] 102 % of control | [4] 96 % of control | [6] 98 % of control

O=C(O)C1CCC(NCc2ccccc2)CC1 (centres undefined)
inactive: endpoint: mean survival time, dose: 100.0 mg/kg/injection, schedule: Q01DX009 (ip), vehicle: Klucel (hydroxypropylcellulose) (HPC) 100 % of control | endpoint: mean survival time, dose: 200.0 mg/kg/injection, schedule: Q01DX009 (ip), vehicle: Klucel (hydroxypropylcellulose) (HPC) 100 % of control | endpoint: mean survival time, dose: 400.0 mg/kg/injection, schedule: Q01DX009 (ip), vehicle: Klucel (hydroxypropylcellulose) (HPC) 111 % of control

Source: PubChem BioAssay AID256 (DTP/NCI, 2004)
